Patent publication US20240124439A1, “Pyrido[2,3-D]Imidazole Derivatives and Their Use As Inhibitors of ITK for the Treatment of Skin Disease” (Pfizer Inc., priority 2020, published 2024)

Legend:
[1] = tested on: activated CD4+ human T-cells (IL-2); experiment: IL-2 inhibition in supernatants from activated CD4+ human T-cells (cisbio HTRF); assay type: cell-based; conditions: T-cell; CD3/CD28-activated CD4+ human T cells, ImmunoCult stimulation 20 to 24 hrs; geometric mean of count n
Procedure, shortened: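 Primary human CD4+ T cells activated with CD3/CD28 for 3 days and expanded to 7-9 days total, plated at 30,000 cells/well. Cells preincubated 15 min with compound, then stimulated with ImmunoCult (1:50 final) for 20-24 h at 37° C. Supernatant IL-2 measured by HTRF (665/615 nm); IC50 from four-parameter logistic fit.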

[2] = target: IL-2-Inducible T-Cell Kinase (ITK) (Homo sapiens (Human), UniProt Q08881); experiment: ITK enzyme assay (IL-2-inducible T-cell kinase activity); assay type: biochemical; conditions: geometric mean of count n
IL-2-Inducible T-Cell Kinase (ITK), sequence (Q08881 whole entry): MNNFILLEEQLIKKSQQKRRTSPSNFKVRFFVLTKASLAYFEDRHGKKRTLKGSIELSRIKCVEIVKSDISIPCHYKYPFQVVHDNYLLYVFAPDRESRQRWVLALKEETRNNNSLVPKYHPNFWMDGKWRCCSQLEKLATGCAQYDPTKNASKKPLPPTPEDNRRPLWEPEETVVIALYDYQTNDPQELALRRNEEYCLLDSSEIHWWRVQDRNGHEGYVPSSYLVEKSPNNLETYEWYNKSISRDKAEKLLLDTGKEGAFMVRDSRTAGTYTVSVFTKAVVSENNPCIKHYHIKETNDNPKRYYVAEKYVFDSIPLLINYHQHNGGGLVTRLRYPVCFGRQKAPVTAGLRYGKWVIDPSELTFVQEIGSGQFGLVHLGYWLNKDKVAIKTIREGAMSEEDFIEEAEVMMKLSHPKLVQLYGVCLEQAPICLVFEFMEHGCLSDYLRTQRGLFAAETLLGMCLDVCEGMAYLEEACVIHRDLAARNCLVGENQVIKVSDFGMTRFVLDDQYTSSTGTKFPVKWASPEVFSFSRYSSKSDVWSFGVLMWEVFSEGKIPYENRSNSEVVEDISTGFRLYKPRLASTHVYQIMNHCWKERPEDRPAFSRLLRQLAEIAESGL
Procedure, shortened: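 Full-length N-Flag/C-His human ITK, pre-incubated 30 min at RT with compound. Reaction in HEPES pH 7.5 buffer with MgCl2, glutathione, gelatin and Brij-35, started with BTK peptide substrate, 60 min at RT. EDTA stop, PT66/APC TR-FRET detection overnight; IC50 fitted by four-parameter logistic.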

SMILES | IC50 [1] | IC50 [2]
CC[C@H](C)C(=O)N(C)c1cnc2[nH]c(-c3n[nH]c4c3CCC(C)(C)C4)nc2c1 [Example 92, (S)-N-(2-(6,6-Dimethyl-4,5,6,7-tetrahydro-1H-indazol-3-yl)-3H-imidazo[4,5-b]pyridin-6-yl)-N,2-dimethylbutanamide] | > 10000 nM | 698 nM
CCC1(C(=O)N(C)c2cnc3[nH]c(-c4n[nH]c5c4CCC(C)(C)C5)nc3c2)CCOCC1 [Example 94, N-(2-(6,6-Dimethyl-4,5,6,7-tetrahydro-1H-indazol-3-yl)-3H-imidazo[4,5-b]pyridin-6-yl)-4-ethyl-N-methyltetrahydro-2H-pyran-4-carboxamide] | 3170 nM | 307 nM
CN(C(=O)C1(F)CCOCC1)c1cnc2[nH]c(-c3n[nH]c4c3CCC(C)(C)C4)nc2c1 [Example 98, N-(2-(6,6-Dimethyl-4,5,6,7-tetrahydro-1H-indazol-3-yl)-3H-imidazo[4,5-b]pyridin-6-yl)-4-fluoro-N-methyltetrahydro-2H-pyran-4-carboxamide] | 1310 nM | 122 nM
CC(C)CC(=O)N(C)c1cnc2[nH]c(-c3n[nH]c4c3CCC(C)(C)C4)nc2c1 [Example 102, N-(2-(6,6-Dimethyl-4,5,6,7-tetrahydro-1H-indazol-3-yl)-3H-imidazo[4,5-b]pyridin-6-yl)-N,3-dimethylbutanamide] | 749 nM | 269 nM
CC(C)CCC(=O)N(C)c1cnc2[nH]c(-c3n[nH]c4c3CCC(C)(C)C4)nc2c1 [Example 106, N-(2-(6,6-Dimethyl-4,5,6,7-tetrahydro-1H-indazol-3-yl)-3H-imidazo[4,5-b]pyridin-6-yl)-N,4-dimethylpentanamide] | 1090 nM | 245 nM
CCC(CC)C(=O)N(C)c1cnc2[nH]c(-c3n[nH]c4c3CCC(C)(C)C4)nc2c1 [Example 107, N-(2-(6,6-Dimethyl-4,5,6,7-tetrahydro-1H-indazol-3-yl)-3H-imidazo[4,5-b]pyridin-6-yl)-2-ethyl-N-methylbutanamide] | 1870 nM | 564 nM
CN(C(=O)C1(C)CCOCC1)c1cnc2[nH]c(-c3n[nH]c4c3CCC(C)(C)C4)nc2c1 [Example 109, N-(2-(6,6-Dimethyl-4,5,6,7-tetrahydro-1H-indazol-3-yl)-3H-imidazo[4,5-b]pyridin-6-yl)-N,4-dimethyltetrahydro-2H-pyran-4-carboxamide] | 908 nM | 421 nM
CN(C(=O)C1CCC(F)(F)CC1)c1cnc2[nH]c(-c3n[nH]c4c3CCC(C)(C)C4)nc2c1 [Example 110, N-(2-(6,6-Dimethyl-4,5,6,7-tetrahydro-1H-indazol-3-yl)-3H-imidazo[4,5-b]pyridin-6-yl)-4,4-difluoro-N-methylcyclohexane-1-carboxamide] | 1590 nM | 554 nM
CN(C(=O)C1(C)CCCCO1)c1cnc2[nH]c(-c3n[nH]c4c3CCC(C)(C)C4)nc2c1 (centres unmarked) [Example 112, N-(2-(6,6-Dimethyl-4,5,6,7-tetrahydro-1H-indazol-3-yl)-3H-imidazo[4,5-b]pyridin-6-yl)-N,2-dimethyltetrahydro-2H-pyran-2-carboxamide] | 895 nM | 234 nM
CN(C(=O)C1CCCC1)c1cnc2[nH]c(-c3n[nH]c4c3CCC(C)(C)C4)nc2c1 [Example 113, N-(2-(6,6-Dimethyl-4,5,6,7-tetrahydro-1H-indazol-3-yl)-3H-imidazo[4,5-b]pyridin-6-yl)-N-methylcyclopentanecarboxamide] | 1620 nM | 350 nM
CN(C(=O)CC1CCOCC1)c1cnc2[nH]c(-c3n[nH]c4c3CCC(C)(C)C4)nc2c1 [Example 114, N-(2-(6,6-Dimethyl-4,5,6,7-tetrahydro-1H-indazol-3-yl)-3H-imidazo[4,5-b]pyridin-6-yl)-N-methyl-2-(tetrahydro-2H-pyran-4-yl)acetamide] | 1510 nM | 156 nM
C[C@H](C(=O)N(C)c1cnc2[nH]c(-c3n[nH]c4c3C[C@@H]3C[C@]3(C)C4)nc2c1)N1CCCCC1 [Example 117, (R)-N-Methyl-N-(2-((4aS,5aR)-5a-methyl-1,4,4a,5,5a,6-hexahydrocyclopropa[f]indazol-3-yl)-3H-imidazo[4,5-b]pyridin-6-yl)-2-(piperidin-1-yl)propanamide] | 769 nM | 275 nM
CC(C(=O)N(C)c1cnc2[nH]c(-c3n[nH]c4c3C[C@@H]3C[C@]3(C)C4)nc2c1)N1C2COCC1C2 (stereo partly drawn) [Example 119, 2-(3-Oxa-6-azabicyclo[3.1.1]heptan-6-yl)-N-methyl-N-(2-((4aS,5aR)-5a-methyl-1,4,4a,5,5a,6-hexahydrocyclopropa[f]indazol-3-yl)-3H-imidazo[4,5-b]pyridin-6-yl)propanamide] | 4210 nM | 470 nM
CC(C(=O)N(C)c1cnc2[nH]c(-c3n[nH]c4c3C[C@@H]3C[C@]3(C)C4)nc2c1)N1CCCCC1 (stereo partly drawn) [Example 120, N-Methyl-N-(2-((4aS,5aR)-5a-methyl-1,4,4a,5,5a,6-hexahydrocyclopropa[f]indazol-3-yl)-3H-imidazo[4,5-b]pyridin-6-yl)-2] | 2340 nM | 788 nM

The next lines start with the values.

IC50 [1] | IC50 [2] | SMILES
384 nM | 144 nM | CN(C(=O)CC(C)(C)C)c1cnc2[nH]c(-c3n[nH]c4c3CCC(C)(C)C4)nc2c1 [Example 91, N-(2-(6,6-Dimethyl-4,5,6,7-tetrahydro-1H-indazol-3-yl)-3H-imidazo[4,5-b]pyridin-6-yl)-N,3,3-trimethylbutanamide]
233 nM | 59 nM | CN(C(=O)CC(C)(C)C(F)F)c1cnc2[nH]c(-c3n[nH]c4c3CCC(C)(C)C4)nc2c1 [Example 99, N-(2-(6,6-Dimethyl-4,5,6,7-tetrahydro-1H-indazol-3-yl)-3H-imidazo[4,5-b]pyridin-6-yl)-4,4-difluoro-N,3,3-trimethylbutanamide]
682 nM | 104 nM | CN(C(=O)C1(C)CC(F)(F)C1)c1cnc2[nH]c(-c3n[nH]c4c3CCC(C)(C)C4)nc2c1 [Example 100, N-(2-(6,6-Dimethyl-4,5,6,7-tetrahydro-1H-indazol-3-yl)-3H-imidazo[4,5-b]pyridin-6-yl)-3,3-difluoro-N,1-dimethylcyclobutane-1-carboxamide]
464 nM | 48 nM | CN(C(=O)C1(F)CCCCC1)c1cnc2[nH]c(-c3n[nH]c4c3CCC(C)(C)C4)nc2c1 [Example 101, N-(2-(6,6-Dimethyl-4,5,6,7-tetrahydro-1H-indazol-3-yl)-3H-imidazo[4,5-b]pyridin-6-yl)-1-fluoro-N-methylcyclohexane-1-carboxamide]
392 nM | 104 nM | CC(C)C(=O)N(C)c1cnc2[nH]c(-c3n[nH]c4c3CCC(C)(C)C4)nc2c1 [Example 103, N-(2-(6,6-Dimethyl-4,5,6,7-tetrahydro-1H-indazol-3-yl)-3H-imidazo[4,5-b]pyridin-6-yl)-N-methylisobutyramide]
517 nM | 101 nM | CN(C(=O)C1(C)CCC1)c1cnc2[nH]c(-c3n[nH]c4c3CCC(C)(C)C4)nc2c1 [Example 104, N-(2-(6,6-Dimethyl-4,5,6,7-tetrahydro-1H-indazol-3-yl)-3H-imidazo[4,5-b]pyridin-6-yl)-N,1-dimethylcyclobutane-1-carboxamide]
732 nM | 123 nM | CN(C(=O)C1CCC1)c1cnc2[nH]c(-c3n[nH]c4c3CCC(C)(C)C4)nc2c1 [Example 105, N-(2-(6,6-Dimethyl-4,5,6,7-tetrahydro-1H-indazol-3-yl)-3H-imidazo[4,5-b]pyridin-6-yl)-N-methylcyclobutanecarboxamide]
367 nM | 100 nM | CCCC(=O)N(C)c1cnc2[nH]c(-c3n[nH]c4c3CCC(C)(C)C4)nc2c1 [Example 108, N-(2-(6,6-Dimethyl-4,5,6,7-tetrahydro-1H-indazol-3-yl)-3H-imidazo[4,5-b]pyridin-6-yl)-N-methylbutyramide]
415 nM | 142 nM | C[C@H](C(=O)N(C)c1cnc2[nH]c(-c3n[nH]c4c3C[C@@H]3C[C@]3(C)C4)nc2c1)N1C[C@H]2CC[C@@H]1CO2 [Example 115]
172 nM | 18 nM | C[C@@H](C(=O)N(C)c1cnc2[nH]c(-c3n[nH]c4c3C[C@@H]3C[C@]3(C)C4)nc2c1)N1C[C@H]2CC[C@@H]1CO2 [Example 116, (S)-2-((1R,4R)-2-Oxa-5-azabicyclo[2.2.2]octan-5-yl)-N-methyl-N-(2-((4aS,5aR)-5a-methyl-1,4,4a,5,5a,6-hexahydrocyclopropa[f]indazol-3-yl)-3H-imidazo[4,5-b]pyridin-6-yl)propanamide]
727 nM | 243 nM | C[C@@H](C(=O)N(C)c1cnc2[nH]c(-c3n[nH]c4c3C[C@@H]3C[C@]3(C)C4)nc2c1)N1CCCCC1 [Example 118, (S)-N-Methyl-N-(2-((4aS,5aR)-5a-methyl-1,4,4a,5,5a,6-hexahydrocyclopropa[f]indazol-3-yl)-3H-imidazo[4,5-b]pyridin-6-yl)-2-(piperidin-1-yl)propanamide]
